{"source": "patent US10150793B2", "about": "“Antagonists of CB1 receptor” (INSERM (Institut National de la Santé et de la Recherche …, priority 2011, dated 2018)", "experiment": "Diet induced obesity, body weight and body composition", "type": "in vivo, C57BL/6J mice", "experimental": "2-months old male C57BL/6J mice were ad libitum fed a 60% high-fat diet (HFD; Catalog #D12492, Research Diets, New Brunswick, N.J.) for 8 weeks and subsequently treated either with pegnenolone or vehicle. Homogeneous distribution of the animals in the 3 treatment groups was guaranteed by matching their body weight, fat mass and fasting glucose levels before the start of the pharmacological treatments.\nFat mass and lean mass were assessed in vivo using an EchoMRI analyzer (EchoMedical Systems, Houston, Tex.) before the mice were placed on the HFD, as well as immediately before and at the end of the chronic treatment with pregnegnolone or its vehicle.\nIn this example the inventors analyzed the ability of pregnenolone to inhibit the effects of CB1 activation in the context of obesity. The effects of pregnenolone on metabolic disorders were studied using the model of diet induced obesity (DIO) in mice. In this procedure animals are maintained on a high fat diet (60% of fat) which progressively induce obesity. After eight weeks on this diet which already induced overweight and excessive fat accumulation in these animals the treatment with pregnenolone was started for thirty days (once a day 2 mg/kg or 5 mg/kg, n=8).", "key": {"[1]": {"conditions": "pregnenolone 5 mg/kg, magnetic resonance"}}, "data": [{"compound": "CC(=O)[C@H]1CC[C@H]2[C@@H]3CC=C4C[C@@H](O)CC[C@]4(C)[C@H]3CC[C@]12C", "note": "[Pregnenolone, 5-Pregnen-3β-ol-20-one]", "values": [{"measurement": "effect on food intake in DIO model", "setting": "high fat diet, food intake over 24 hours", "result": "did not modify food intake"}, {"measurement": "effect on body weight", "setting": "high fat diet, once a day 2 or 5 mg/kg for thirty days, effect after 15 days", "result": "decreased body weight"}, {"measurement": "effect on fat mass", "setting": "[1]", "result": "the increase in fat mass was suppressed"}, {"measurement": "effect on lean mass", "setting": "[1]", "result": "the decrease in lean mass was blunted"}]}]}
